Measured values: PubChem BioAssay AID256 (DTP/NCI, 2004)
“And” between values parts separate entries of the source, which are not always exact repeats. Equal entries are not always repeated. Toxic doses and inconclusive results are not listed.

Test system: CD2F1 mice, L1210 leukemia ip, survival T/C
Experiment: NCI In Vivo Anticancer Drug Screen. Data for tumor model L1210 Leukemia (intraperitoneal) in CD2F1 (CDF1) mice
Conditions: higher = longer survival
Outline: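 Tumor-bearing mice (transplanted tumor) were split into treated and vehicle control groups, and the measured endpoint of each treated group was divided by that of its vehicle controls.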

[1] = endpoint: mean survival time, dose: 50.0 mg/kg/injection, schedule: Q01DX009 (ip), vehicle: Klucel (hydroxypropylcellulose) (HPC)
[2] = endpoint: mean survival time, dose: 100.0 mg/kg/injection, schedule: Q01DX009 (ip), vehicle: Klucel (hydroxypropylcellulose) (HPC)
[3] = endpoint: mean survival time, dose: 200.0 mg/kg/injection, schedule: Q01DX009 (ip), vehicle: Klucel (hydroxypropylcellulose) (HPC)
[4] = endpoint: mean survival time, dose: 200.0 mg/kg/injection, schedule: Q01DX001 (ip), vehicle: saline with Tween-80
[5] = endpoint: mean survival time, dose: 400.0 mg/kg/injection, schedule: Q01DX001 (ip), vehicle: saline with Tween-80
[6] = endpoint: mean survival time, dose: 100.0 mg/kg/injection, schedule: Q01DX001 (ip), vehicle: saline with Tween-80
[7] = endpoint: mean survival time, dose: 100.0 mg/kg/injection, schedule: Q01DX009 (ip), vehicle: saline with Tween-80
[8] = endpoint: mean survival time, dose: 200.0 mg/kg/injection, schedule: Q01DX009 (ip), vehicle: saline with Tween-80

Q: Which T/C (endpoint: mean survival time, dose: 100.0 mg/kg/injection, schedule: Q01DX009 (ip), vehicle: saline) does the source give for `C=C[Si](C)(C=C)C=C` here?
A: Its T/C is 95 % of control.

Q: What about the T/C (endpoint: mean survival time, dose: 100.0 mg/kg/injection, schedule: Q04DX002 (ip), vehicle: saline) of the same molecule?
A: Its T/C is 91 % of control.

Q: What about the T/C (endpoint: mean survival time, dose: 200.0 mg/kg/injection, schedule: Q01DX009 (ip), vehicle: saline) of the same molecule?
A: Its T/C is 97 % of control.

Q: What about the T/C (endpoint: mean survival time, dose: 200.0 mg/kg/injection, schedule: Q04DX002 (ip), vehicle: saline) of the same molecule?
A: Its T/C is 98 % of control.

Q: What about the T/C (endpoint: mean survival time, dose: 400.0 mg/kg/injection, schedule: Q01DX009 (ip), vehicle: saline) of the same molecule?
A: Its T/C is 93 % of control.

Q: What about the T/C (endpoint: mean survival time, dose: 400.0 mg/kg/injection, schedule: Q04DX002 (ip), vehicle: saline) of the same molecule?
A: Its T/C is 98 % of control.

Q: Which results are given for `CC(C)OP(=O)(OCCO)C(Cl)Cl` (configuration not stated)?
A: T/C (endpoint: mean survival time, dose: 100.0 mg/kg/injection, schedule: Q01DX001 (ip), vehicle: saline): 97 % of control; T/C (endpoint: mean survival time, dose: 200.0 mg/kg/injection, schedule: Q01DX001 (ip), vehicle: saline): 94 % of control; T/C (endpoint: mean survival time, dose: 400.0 mg/kg/injection, schedule: Q01DX001 (ip), vehicle: saline): 96 % of control

Q: For `N#CC(c1ccc([N+](=O)[O-])cc1)C(CC(=O)c1ccccc1)c1ccccc1` (configuration not stated), which T/C [1] is on record?
A: Its T/C is 96 % of control.

Q: And the T/C [2]?
A: The T/C was 101 % of control.

Q: And the T/C [3]?
A: The T/C was 93 % of control.

Q: `O=C(O)COc1ccc(Cl)cc1Cl.[Cr]` was tested. Which T/C (endpoint: mean survival time, dose: 100.0 mg/kg/injection, schedule: Q04DX002 (ip), vehicle: saline with Tween-80) did it give?
A: Its T/C is 94 % of control.

Q: What about the T/C (endpoint: mean survival time, dose: 200.0 mg/kg/injection, schedule: Q04DX002 (ip), vehicle: saline with Tween-80) of the same molecule?
A: The T/C was 87 % of control.

Q: What about the T/C (endpoint: mean survival time, dose: 400.0 mg/kg/injection, schedule: Q04DX002 (ip), vehicle: saline with Tween-80) of the same molecule?
A: The T/C was 102 % of control.

Q: How did the T/C [4] turn out when `CCCCCCCCCCCCCCOc1ccc(OCCCCCCCCCCC)cc1` was run?
A: The T/C was 89 % of control.

Q: What about the T/C [5] of the same molecule?
A: Its T/C is 89 % of control.

Q: With `C=C(NC(C)=O)C(=O)O` as the molecule, how does the T/C [6] read?
A: The T/C was 96 % of control.

Q: What about the T/C [7] of the same molecule?
A: The T/C was 103 % of control.

Q: And the T/C [4]?
A: Its T/C is 97 % of control.

Q: And the T/C [8]?
A: Its T/C is 89 % of control.

Q: What about the T/C [5] of the same molecule?
A: Its T/C is 97 % of control.

Q: For `CCCCOC(=O)c1cnc[nH]c1=O`, which T/C [6] is on record?
A: The T/C was 95 % of control.

Q: What about the T/C [4] of the same molecule?
A: The T/C was 93 % of control.

Q: And the T/C [5]?
A: Its T/C is 96 % of control.

Q: How did the T/C (endpoint: mean survival time, dose: 6.25 mg/kg/injection, schedule: Q01DX009 (ip), vehicle: Klucel (hydroxypropylcellulose) (HPC)) turn out when `O=C(O)/C=C/C(=O)Nc1ccc(Cl)c(Cl)c1` was run?
A: The T/C was 93 % of control.

Q: What about the T/C (endpoint: mean survival time, dose: 12.5 mg/kg/injection, schedule: Q01DX009 (ip), vehicle: Klucel (hydroxypropylcellulose) (HPC)) of the same molecule?
A: Its T/C is 96 % of control and 98 % of control.

Q: What about the T/C (endpoint: mean survival time, dose: 25.0 mg/kg/injection, schedule: Q01DX009 (ip), vehicle: Klucel (hydroxypropylcellulose) (HPC)) of the same molecule?
A: The T/C was 113 % of control and 104 % of control.

Q: And the T/C [1]?
A: The T/C was 114 % of control and 104 % of control and 110 % of control.

Q: What about the T/C [2] of the same molecule?
A: The T/C was 104 % of control and 107 % of control and 109 % of control.

Q: What about the T/C [3] of the same molecule?
A: The T/C was 98 % of control.

Q: Which results are given for `C=CC1(O)CCCCC1`?
A: T/C [6]: 100 % of control; T/C [4]: 100 % of control; T/C [5]: 97 % of control

Q: How did the T/C (endpoint: median survival time, dose: 10.0 mg/kg/injection, schedule: Q01DX005 (ip), vehicle: water) turn out when `COc1cc(NCc2ccc3nc(N)nc(N)c3c2C)cc(OC)c1OC` (tested in a mixture with another compound) was run?
A: Its T/C is 115 % of control.

Q: `O=C(Nc1ccc(NC(=O)c2ccccc2)c(Sc2ccccc2)c1Sc1ccccc1)c1ccccc1` was tested. Which T/C [6] did it give?
A: Its T/C is 89 % of control.

Q: And the T/C [4]?
A: The T/C was 89 % of control.

Q: What about the T/C [5] of the same molecule?
A: The T/C was 86 % of control.

Q: With `COC(=O)c1ccc(C(=O)OC)cc1` as the molecule, how does the T/C [7] read?
A: The T/C was 95 % of control.

Q: And the T/C (endpoint: mean survival time, dose: 100.0 mg/kg/injection, schedule: Q04DX003 (ip), vehicle: saline with Tween-80)?
A: The T/C was 93 % of control.

Q: What about the T/C [8] of the same molecule?
A: Its T/C is 98 % of control.

Q: What about the T/C (endpoint: mean survival time, dose: 200.0 mg/kg/injection, schedule: Q04DX003 (ip), vehicle: saline with Tween-80) of the same molecule?
A: The T/C was 104 % of control.

Q: What about the T/C (endpoint: mean survival time, dose: 400.0 mg/kg/injection, schedule: Q01DX009 (ip), vehicle: saline with Tween-80) of the same molecule?
A: Its T/C is 95 % of control.

Q: And the T/C (endpoint: mean survival time, dose: 400.0 mg/kg/injection, schedule: Q04DX003 (ip), vehicle: saline with Tween-80)?
A: The T/C was 101 % of control.

Q: What does the source list for `C/C=C1/CC2C=Nc3cc(O)c(OC)cc3C(=O)N2C1` (configuration not stated)?
A: T/C (endpoint: median survival time, dose: 0.02 mg/kg/injection, schedule: Q01DX005 (ip), vehicle: DMSO): 100 % of control; T/C (endpoint: median survival time, dose: 0.04 mg/kg/injection, schedule: Q01DX005 (ip), vehicle: DMSO): 101 % of control; T/C (endpoint: median survival time, dose: 0.08 mg/kg/injection, schedule: Q01DX005 (ip), vehicle: DMSO): 104 % of control; T/C (endpoint: median survival time, dose: 0.16 mg/kg/injection, schedule: Q01DX005 (ip), vehicle: DMSO): 113 % of control; T/C (endpoint: median survival time, dose: 0.32 mg/kg/injection, schedule: Q01DX005 (ip), vehicle: DMSO): 121 % of control

Q: Which T/C (endpoint: mean survival time, dose: 0.5 mg/kg/injection, schedule: Q01DX009 (ip), vehicle: water) does the source give for `CCCCCCCC(=O)OCC(=O)[C@]1(O)Cc2c(O)c3c(c(O)c2[C@@H](OC2CC(N)C(O)C(C)O2)C1)C(=O)c1c(OC)cccc1C3=O` (some centres not stated) here?
A: The T/C was 117 % of control.

Q: And the T/C (endpoint: mean survival time, dose: 2.0 mg/kg/injection, schedule: Q01DX009 (ip), vehicle: saline sonified)?
A: The T/C was 153 % of control.

Q: And the T/C (endpoint: mean survival time, dose: 2.0 mg/kg/injection, schedule: Q01DX009 (ip), vehicle: saline with Tween-80)?
A: The T/C was 211 % of control.

Q: What about the T/C (endpoint: mean survival time, dose: 2.0 mg/kg/injection, schedule: Q01DX009 (ip), vehicle: water) of the same molecule?
A: Its T/C is 151 % of control.

Q: What about the T/C (endpoint: mean survival time, dose: 3.0 mg/kg/injection, schedule: Q04DX003 (ip), vehicle: saline with Tween-80) of the same molecule?
A: Its T/C is 164 % of control.

Q: What about the T/C (endpoint: mean survival time, dose: 8.0 mg/kg/injection, schedule: Q01DX009 (ip), vehicle: saline with Tween-80) of the same molecule?
A: The T/C was 90 % of control.

Q: What about the T/C (endpoint: mean survival time, dose: 20.0 mg/kg/injection, schedule: Q01DX001 (ip), vehicle: saline with Tween-80) of the same molecule?
A: Its T/C is 161 % of control.

Q: What about the T/C (endpoint: mean survival time, dose: 20.0 mg/kg/injection, schedule: Q04DX003 (ip), vehicle: saline with Tween-80) of the same molecule?
A: The T/C was 104 % of control.
